Test results published in patent US20100168102A9, “Amide Derivatives as Kinase Inhibitors” (Devgen NV, priority 2005, published 2010).

Experiments:
[1] = target: T1, human ROCKα/ROCKII mix (Homo sapiens, UniProt O75116); test: Biochemical assay for ROCK (fluorescence polarization, ROCK IMAP Kit)
T1 construct: purchased Upstate Biotechnology 14-451

[2] = target: T2, PKC epsilon (Homo sapiens, UniProt Q02156); test: Biochemical assay for PKC epsilon (fluorescence polarization, Protein Kinase C Assay Kit, Red); conditions: read-out: IC50 μM PKCε
T2 construct: purchased Invitrogen P2282
T2 sequence (Q02156 1-737): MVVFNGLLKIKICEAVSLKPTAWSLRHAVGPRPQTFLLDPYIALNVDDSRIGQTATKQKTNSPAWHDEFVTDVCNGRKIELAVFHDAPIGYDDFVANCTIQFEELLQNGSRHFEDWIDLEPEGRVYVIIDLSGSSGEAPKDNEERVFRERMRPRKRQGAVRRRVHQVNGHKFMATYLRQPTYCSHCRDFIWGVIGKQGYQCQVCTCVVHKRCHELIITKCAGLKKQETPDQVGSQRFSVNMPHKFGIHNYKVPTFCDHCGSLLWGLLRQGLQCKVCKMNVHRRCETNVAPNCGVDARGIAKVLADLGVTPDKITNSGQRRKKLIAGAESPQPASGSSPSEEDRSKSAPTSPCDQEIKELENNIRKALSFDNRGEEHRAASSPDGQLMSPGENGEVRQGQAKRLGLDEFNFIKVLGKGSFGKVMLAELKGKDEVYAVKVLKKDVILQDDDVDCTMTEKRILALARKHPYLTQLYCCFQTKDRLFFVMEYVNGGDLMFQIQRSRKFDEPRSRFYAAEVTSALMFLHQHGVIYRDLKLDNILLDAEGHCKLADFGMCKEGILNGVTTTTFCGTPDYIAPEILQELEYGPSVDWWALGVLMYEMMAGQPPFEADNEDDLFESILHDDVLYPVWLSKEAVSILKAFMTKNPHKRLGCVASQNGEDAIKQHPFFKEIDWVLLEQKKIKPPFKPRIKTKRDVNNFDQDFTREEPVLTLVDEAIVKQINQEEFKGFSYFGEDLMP
How it was run: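 Read-out was fluorescence-polarization competition between phosphorylated substrate and a rhodamine PKC tracer for an anti-phosphoserine antibody, added with EDTA stop after an 80 min room-temperature kinase reaction with ATP and protein substrate (Mg2+/Ca2+ buffer). Enzyme (10 ng/ml final) was preincubated with compound for 30 min.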

T1 sequence (O75116 11-552 limits assumed): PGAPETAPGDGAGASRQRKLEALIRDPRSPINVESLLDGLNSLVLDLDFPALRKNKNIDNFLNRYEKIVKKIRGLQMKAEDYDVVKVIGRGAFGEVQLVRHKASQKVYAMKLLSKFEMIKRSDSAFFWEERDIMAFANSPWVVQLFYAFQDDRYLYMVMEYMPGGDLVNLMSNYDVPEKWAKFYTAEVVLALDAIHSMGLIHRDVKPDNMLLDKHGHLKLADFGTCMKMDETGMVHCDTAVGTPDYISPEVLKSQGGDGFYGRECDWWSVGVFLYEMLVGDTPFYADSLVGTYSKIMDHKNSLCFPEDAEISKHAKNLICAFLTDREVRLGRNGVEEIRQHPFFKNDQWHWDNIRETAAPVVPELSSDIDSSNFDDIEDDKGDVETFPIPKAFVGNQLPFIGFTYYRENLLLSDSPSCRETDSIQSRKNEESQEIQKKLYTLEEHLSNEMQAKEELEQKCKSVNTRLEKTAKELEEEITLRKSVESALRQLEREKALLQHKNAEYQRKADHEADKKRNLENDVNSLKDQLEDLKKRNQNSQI

With `NC(c1ccc(C(=O)Nc2ccncc2)cc1)C1CCCN1C(=O)C(c1ccccc1)C1CCCC1` (stereo not shown) [Compound 556, 4-{Amino-[1-(2-cyclopentyl-2-phenyl-acetyl)-pyrrolidin-2-yl]-methyl}-N-pyridin-4-yl-benzamide] as the compound, how does the IC50 [1] read?
The IC50 was 0.5 to 5 µM.

What about the IC50 [2] of the same compound?
Its IC50 is 5 to 50 µM.

How did the IC50 [1] turn out when `NC(c1ccc(C(=O)Nc2ccncc2)cc1)C1CCCN1C(=O)Cc1cccc(Br)c1` (stereo not shown) [Compound 557, 4-(Amino-{1-[2-(3-bromo-phenyl)-acetyl]-pyrrolidin-2-yl}-methyl)-N-pyridin-4-yl-benzamide] was run?
Its IC50 is 0.05 to 0.5 µM.

What about the IC50 [2] of the same compound?
Its IC50 is 0.5 to 5 µM.

Which results are given for `NC(c1ccc(C(=O)Nc2ccncc2)cc1)C1CCCN1C(=O)Cc1ccc(Br)cc1` (stereo not shown) [Compound 558, 4-(Amino-{1-[2-(4-bromo-phenyl)-acetyl]-pyrrolidin-2-yl}-methyl)-N-pyridin-4-yl-benzamide]?
IC50 [1]: 0.05 to 0.5 µM; IC50 [2]: 0.5 to 5 µM

Which IC50 [1] does the source give for `NC(c1ccc(C(=O)Nc2ccncc2)cc1)C1CCCN1C(=O)Cc1ccc(C(F)(F)F)cc1` (stereo not shown) [Compound 559, 4-(Amino-{1-[2-(4-trifluoromethyl-phenyl)-acetyl]-pyrrolidin-2-yl}-methyl)-N-pyridin-4-yl-benzamide] here?
Its IC50 is 0.5 to 5 µM.

What about the IC50 [2] of the same compound?
The IC50 was 5 to 50 µM.

How did the IC50 [1] turn out when `NC(c1ccc(C(=O)Nc2ccncc2)cc1)C1CCCN1C(=O)Cc1cccc(Cl)c1` (stereo not shown) [Compound 560, 4-(Amino-{1-[2-(3-chloro-phenyl)-acetyl]-pyrrolidin-2-yl}-methyl)-N-pyridin-4-yl-benzamide] was run?
Its IC50 is 0.5 to 5 µM.

What about the IC50 [2] of the same compound?
Its IC50 is 5 to 50 µM.

With `NC(c1ccc(C(=O)Nc2ccncc2)cc1)C1CCCN1C(=O)Cc1ccc(Cl)cc1` (stereo not shown) [Compound 561, 4-(Amino-{1-[2-(4-chloro-phenyl)-acetyl]-pyrrolidin-2-yl}-methyl)-N-pyridin-4-yl-benzamide] as the compound, how does the IC50 [1] read?
The IC50 was 0.5 to 5 µM.

And the IC50 [2]?
The IC50 was 0.5 to 5 µM.

`CC(C)C(C(=O)N1CCCC1C(N)c1ccc(C(=O)Nc2ccncc2)cc1)c1ccc(Cl)cc1` (stereo not shown) [Compound 562, 4-(Amino-{1-[2-(4-chloro-phenyl)-3-methyl-butyryl]-pyrrolidin-2-yl}-methyl)-N-pyridin-4-yl-benzamide] was tested. Which IC50 [1] did it give?
Its IC50 is 0.5 to 5 µM.

What about the IC50 [2] of the same compound?
The IC50 was 0.5 to 5 µM.

What does the source list for `CC(C)(C(=O)N1CCCC1C(N)c1ccc(C(=O)Nc2ccncc2)cc1)c1ccc(Cl)cc1` (stereo not shown) [Compound 563, 4-(Amino-{1-[2-(4-chloro-phenyl)-2-methyl-propionyl]-pyrrolidin-2-yl}-methyl)-N-pyridin-4-yl-benzamide]?
IC50 [1]: 0.5 to 5 µM; IC50 [2]: 0.5 to 5 µM

`NC(c1ccc(C(=O)Nc2ccncc2)cc1)C1CCCN1C(=O)C1(c2ccc(Cl)cc2)CC1` (stereo not shown) [Compound 564, 4-(Amino-{1-[1-(4-chloro-phenyl)-cyclopropanecarbonyl]-pyrrolidin-2-yl}-methyl)-N-pyridin-4-yl-benzamide] was tested. Which IC50 [1] did it give?
Its IC50 is 0.5 to 5 µM.

What about the IC50 [2] of the same compound?
Its IC50 is 0.5 to 5 µM.

Which results are given for `NC(c1ccc(C(=O)Nc2ccncc2)cc1)C1CCCN1C(=O)C1(c2ccc(Cl)cc2)CCC1` (stereo not shown) [Compound 565, 4-(Amino-{1-[1-(4-chloro-phenyl)-cyclobutanecarbonyl]-pyrrolidin-2-yl}-methyl)-N-pyridin-4-yl-benzamide]?
IC50 [1]: 0.5 to 5 µM; IC50 [2]: 0.5 to 5 µM

Which IC50 [1] does the source give for `NC(c1ccc(C(=O)Nc2ccncc2)cc1)C1CCCN1C(=O)C1(c2ccc(Cl)cc2)CCCC1` (stereo not shown) [Compound 566, 4-(Amino-{1-[1-(4-chloro-phenyl)-cyclopentanecarbonyl]-pyrrolidin-2-yl}-methyl)-N-pyridin-4-yl-benzamide] here?
The IC50 was 0.5 to 5 µM.

What about the IC50 [2] of the same compound?
Its IC50 is 0.5 to 5 µM.

For `NC(c1ccc(C(=O)Nc2ccncc2)cc1)C1CCCN1C(=O)Cc1ccccc1F` (stereo not shown) [Compound 567, 4-(Amino-{1-[2-(2-fluoro-phenyl)-acetyl]-pyrrolidin-2-yl}-methyl)-N-pyridin-4-yl-benzamide], which IC50 [1] is on record?
Its IC50 is 0.05 to 0.5 µM.

And the IC50 [2]?
Its IC50 is 5 to 50 µM.

With `NC(c1ccc(C(=O)Nc2ccncc2)cc1)C1CCCN1C(=O)Cc1cccc(F)c1` (stereo not shown) [Compound 569] as the compound, how does the IC50 [1] read?
The IC50 was 0.5 to 5 µM.

What about the IC50 [2] of the same compound?
The IC50 was 5 to 50 µM.

Which IC50 [1] does the source give for `NC(c1ccc(C(=O)Nc2ccncc2)cc1)C1CCCN1C(=O)C1(c2cccc(F)c2)CCCC1` (stereo not shown) [Compound 570, 4-(Amino-{1-[1-(3-fluoro-phenyl)-cyclopentanecarbonyl]-pyrrolidin-2-yl}-methyl)-N-pyridin-4-yl-benzamide] here?
The IC50 was 0.5 to 5 µM.

What about the IC50 [2] of the same compound?
The IC50 was 0.5 to 5 µM.

`COc1ccc(CC(=O)N2CCCC2C(N)c2ccc(C(=O)Nc3ccncc3)cc2)cc1F` (stereo not shown) [Compound 571, 4-(Amino-{1-[2-(3-fluoro-4-methoxy-phenyl)-acetyl]-pyrrolidin-2-yl}-methyl)-N-pyridin-4-yl-benzamide] was tested. Which IC50 [1] did it give?
The IC50 was 0.5 to 5 µM.

What about the IC50 [2] of the same compound?
Its IC50 is 5 to 50 µM.

`NC(c1ccc(C(=O)Nc2ccncc2)cc1)C1CCCN1C(=O)Cc1ccc(F)cc1` (stereo not shown) [Compound 572, 4-(Amino-{1-[2-(4-fluoro-phenyl)-acetyl]-pyrrolidin-2-yl}-methyl)-N-pyridin-4-yl-benzamide] was tested. Which IC50 [1] did it give?
The IC50 was 0.5 to 5 µM.

And the IC50 [2]?
Its IC50 is 5 to 50 µM.

`CC(C)(C(=O)N1CCCC1C(N)c1ccc(C(=O)Nc2ccncc2)cc1)c1ccc(F)cc1` (stereo not shown) [Compound 573, 4-(Amino-{1-[2-(4-fluoro-phenyl)-2-methyl-propionyl]-pyrrolidin-2-yl}-methyl)-N-pyridin-4-yl-benzamide] was tested. Which IC50 [1] did it give?
The IC50 was 0.5 to 5 µM.

And the IC50 [2]?
The IC50 was 0.5 to 5 µM.

`NC(c1ccc(C(=O)Nc2ccncc2)cc1)C1CCCN1C(=O)C1(c2ccc(F)cc2)CC1` (stereo not shown) [Compound 574, 4-(Amino-{1-[1-(4-fluoro-phenyl)-cyclopropanecarbonyl]-pyrrolidin-2-yl}-methyl)-N-pyridin-4-yl-benzamide] was tested. Which IC50 [1] did it give?
The IC50 was 0.5 to 5 µM.

What about the IC50 [2] of the same compound?
The IC50 was 0.5 to 5 µM.

`NC(c1ccc(C(=O)Nc2ccncc2)cc1)C1CCCN1C(=O)C1(c2ccc(F)cc2)CCC1` (stereo not shown) [Compound 575, 4-(Amino-{1-[1-(4-fluoro-phenyl)-cyclobutanecarbonyl]-pyrrolidin-2-yl}-methyl)-N-pyridin-4-yl-benzamide] was tested. Which IC50 [1] did it give?
The IC50 was 0.5 to 5 µM.

What about the IC50 [2] of the same compound?
Its IC50 is 0.5 to 5 µM.

How did the IC50 [1] turn out when `NC(c1ccc(C(=O)Nc2ccncc2)cc1)C1CCCN1C(=O)C1(c2ccc(F)cc2)CCCC1` (stereo not shown) [Compound 576, 4-(Amino-{1-[1-(4-fluoro-phenyl)-cyclopentanecarbonyl]-pyrrolidin-2-yl}-methyl)-N-pyridin-4-yl-benzamide] was run?
Its IC50 is 0.5 to 5 µM.

What about the IC50 [2] of the same compound?
Its IC50 is 0.5 to 5 µM.

How did the IC50 [1] turn out when `NC(c1ccc(C(=O)Nc2ccncc2)cc1)C1CCCN1C(=O)Cc1cccc(F)c1F` (stereo not shown) [Compound 578, 4-(Amino-{1-[2-(2,3-difluoro-phenyl)-acetyl]-pyrrolidin-2-yl}-methyl)-N-pyridin-4-yl-benzamide] was run?
Its IC50 is 0.5 to 5 µM.

And the IC50 [2]?
Its IC50 is 0.5 to 5 µM.

What does the source list for `NC(c1ccc(C(=O)Nc2ccncc2)cc1)C1CCCN1C(=O)Cc1cc(F)ccc1F` (stereo not shown) [Compound 579, 4-(Amino-{1-[2-(2,5-difluoro-phenyl)-acetyl]-pyrrolidin-2-yl}-methyl)-N-pyridin-4-yl-benzamide]?
IC50 [1]: 0.5 to 5 µM; IC50 [2]: 5 to 50 µM

Which IC50 [1] does the source give for `NC(c1ccc(C(=O)Nc2ccncc2)cc1)C1CCCN1C(=O)Cc1ccc(F)cc1F` (stereo not shown) [Compound 580, 4-(Amino-{1-[2-(2,4-difluoro-phenyl)-acetyl]-pyrrolidin-2-yl}-methyl)-N-pyridin-4-yl-benzamide] here?
Its IC50 is 0.05 to 0.5 µM.

What about the IC50 [2] of the same compound?
The IC50 was 0.5 to 5 µM.

What does the source list for `NC(c1ccc(C(=O)Nc2ccncc2)cc1)C1CCCN1C(=O)C1(c2ccc(F)cc2F)CC1` (stereo not shown) [Compound 582, 4-(Amino-{1-[1-(2,4-difluoro-phenyl)-cyclopropanecarbonyl]-pyrrolidin-2-yl}-methyl)-N-pyridin-4-yl-benzamide]?
IC50 [1]: 0.5 to 5 µM; IC50 [2]: 0.5 to 5 µM

Which IC50 [1] does the source give for `NC(c1ccc(C(=O)Nc2ccncc2)cc1)C1CCCN1C(=O)Cc1cc(F)cc(F)c1` (stereo not shown) [Compound 583, 4-(Amino-{1-[2-(3,5-difluoro-phenyl)-acetyl]-pyrrolidin-2-yl}-methyl)-N-pyridin-4-yl-benzamide] here?
Its IC50 is 0.5 to 5 µM.

And the IC50 [2]?
The IC50 was 5 to 50 µM.

`NC(c1ccc(C(=O)Nc2ccncc2)cc1)C1CCCN1C(=O)Cc1c(F)cccc1F` (stereo not shown) [Compound 584, 4-(Amino-{1-[2-(2,6-difluoro-phenyl)-acetyl]-pyrrolidin-2-yl}-methyl)-N-pyridin-4-yl-benzamide] was tested. Which IC50 [1] did it give?
The IC50 was 0.5 to 5 µM.

What about the IC50 [2] of the same compound?
Its IC50 is 5 to 50 µM.

With `NC(c1ccc(C(=O)Nc2ccncc2)cc1)C1CCCN1C(=O)C1(c2ccc(F)c(F)c2)CC1` (stereo not shown) [Compound 587, 4-(Amino-{1-[1-(3,4-difluoro-phenyl)-cyclopropanecarbonyl]-pyrrolidin-2-yl}-methyl)-N-pyridin-4-yl-benzamide] as the compound, how does the IC50 [1] read?
The IC50 was 0.5 to 5 µM.

And the IC50 [2]?
Its IC50 is 0.5 to 5 µM.

Which IC50 [1] does the source give for `NC(c1ccc(C(=O)Nc2ccncc2)cc1)C1CCCN1C(=O)C1(c2ccc(F)c(F)c2)CCC1` (stereo not shown) [Compound 588, 4-(Amino-{1-[1-(3,4-difluoro-phenyl)-cyclobutanecarbonyl]-pyrrolidin-2-yl}-methyl)-N-pyridin-4-yl-benzamide] here?
The IC50 was 0.5 to 5 µM.

And the IC50 [2]?
Its IC50 is 0.5 to 5 µM.

What does the source list for `NC(c1ccc(C(=O)Nc2ccncc2)cc1)C1CCCN1C(=O)C1(c2ccc(F)c(F)c2)CCCC1` (stereo not shown) [Compound 589, 4-(Amino-{1-[1-(3,4-difluoro-phenyl)-cyclopentanecarbonyl]-pyrrolidin-2-yl}-methyl)-N-pyridin-4-yl-benzamide]?
IC50 [1]: 0.5 to 5 µM; IC50 [2]: 0.5 to 5 µM
